Source: ChEMBL document CHEMBL5247595, “Synthesis, antitumor, and apoptosis-inducing activities of novel 5-arylidenethiazolidine-2,4-dione derivatives: Histone deacetylases inhibitory activity and molecular docking study” (Eur J Med Chem, 2022)

What was measured:
[1] = system: HepG2; assay: cells; type: functional, cell-based; conditions: Homo sapiens, HepG2, 48 h
Description: Cytotoxicity against human HepG2 cells assessed as inhibition of cell growth measured after 48 hrs by MTT assay

[2] = system: HCT-116; assay: cells; type: functional, cell-based; conditions: Homo sapiens, HCT-116, 48 h
Description: Cytotoxicity against human HCT-116 cells assessed as inhibition of cell growth measured after 48 hrs by MTT assay

[3] = system: MCF7; assay: cells; type: functional, cell-based; conditions: Homo sapiens, MCF7, 48 h
Description: Cytotoxicity against human MCF7 cells assessed as inhibition of cell growth measured after 48 hrs by MTT assay

[4] = system: PC-3; assay: Cytotoxicity against human PC-3 cells assessed as inhibition of cell growth measured after 48 hrs by MTT assay; type: functional, cell-based; conditions: PC-3, 48 h
[5] = system: HeLa; assay: cells; type: functional, cell-based; conditions: Homo sapiens, 48 h
Description: Cytotoxicity against human HeLa cells assessed as inhibition of cell growth measured after 48 hrs by MTT assay

[6] = biological target: Histone deacetylase 1 (Homo sapiens, UniProt Q13547); assay: Inhibition of HDAC1 (unknown origin) by ELISA assay
Sequence of Histone deacetylase 1 (Q13547 whole entry): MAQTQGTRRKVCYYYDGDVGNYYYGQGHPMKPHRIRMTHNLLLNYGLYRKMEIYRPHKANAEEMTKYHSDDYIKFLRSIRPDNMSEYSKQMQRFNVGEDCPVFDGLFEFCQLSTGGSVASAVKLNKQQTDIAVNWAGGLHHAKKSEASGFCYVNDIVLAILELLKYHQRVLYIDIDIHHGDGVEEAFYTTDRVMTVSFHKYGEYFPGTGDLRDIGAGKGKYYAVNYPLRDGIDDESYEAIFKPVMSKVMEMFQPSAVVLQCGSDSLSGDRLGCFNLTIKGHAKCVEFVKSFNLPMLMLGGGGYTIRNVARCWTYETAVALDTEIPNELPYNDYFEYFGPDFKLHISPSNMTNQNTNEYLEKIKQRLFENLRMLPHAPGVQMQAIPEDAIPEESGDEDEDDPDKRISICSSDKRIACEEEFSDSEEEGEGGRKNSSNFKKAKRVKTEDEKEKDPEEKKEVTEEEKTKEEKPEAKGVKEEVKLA

[7] = biological target: Histone deacetylase 2 (Homo sapiens, UniProt Q92769); assay: Inhibition of HDAC2 (unknown origin) by ELISA assay
Sequence of Histone deacetylase 2 (Q92769 whole entry): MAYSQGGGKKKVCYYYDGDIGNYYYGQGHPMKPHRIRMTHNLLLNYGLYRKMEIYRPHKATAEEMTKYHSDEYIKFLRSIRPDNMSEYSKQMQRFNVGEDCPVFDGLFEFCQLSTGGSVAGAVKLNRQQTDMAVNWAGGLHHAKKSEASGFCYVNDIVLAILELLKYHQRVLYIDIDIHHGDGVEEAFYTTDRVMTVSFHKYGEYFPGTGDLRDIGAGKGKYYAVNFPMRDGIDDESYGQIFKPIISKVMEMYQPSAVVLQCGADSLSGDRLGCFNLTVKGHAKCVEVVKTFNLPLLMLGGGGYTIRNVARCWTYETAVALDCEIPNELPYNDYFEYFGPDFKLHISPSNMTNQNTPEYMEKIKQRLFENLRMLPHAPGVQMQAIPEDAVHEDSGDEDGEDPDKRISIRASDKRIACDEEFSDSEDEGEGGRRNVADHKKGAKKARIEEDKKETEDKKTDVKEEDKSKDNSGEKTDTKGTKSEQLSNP

[8] = biological target: T1, Histone deacetylase 8 (Homo sapiens, UniProt Q9BY41); assay: Inhibition of HDAC8 (unknown origin) by ELISA assay
T1 sequence (Q9BY41 whole entry): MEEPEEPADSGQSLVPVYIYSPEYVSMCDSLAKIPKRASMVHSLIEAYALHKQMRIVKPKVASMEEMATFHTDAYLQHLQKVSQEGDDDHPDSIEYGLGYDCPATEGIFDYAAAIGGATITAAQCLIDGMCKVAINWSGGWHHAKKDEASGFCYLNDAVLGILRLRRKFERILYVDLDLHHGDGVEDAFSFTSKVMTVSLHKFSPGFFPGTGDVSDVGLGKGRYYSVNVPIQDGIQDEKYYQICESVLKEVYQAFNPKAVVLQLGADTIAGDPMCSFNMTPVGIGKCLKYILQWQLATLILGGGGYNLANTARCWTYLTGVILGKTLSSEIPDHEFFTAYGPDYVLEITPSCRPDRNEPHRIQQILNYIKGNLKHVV

[9] = biological target: T2, Protein deacetylase HDAC6 (Homo sapiens, UniProt Q9UBN7); assay: Inhibition of HDAC6 (unknown origin) by ELISA assay
T2 sequence (Q9UBN7 whole entry): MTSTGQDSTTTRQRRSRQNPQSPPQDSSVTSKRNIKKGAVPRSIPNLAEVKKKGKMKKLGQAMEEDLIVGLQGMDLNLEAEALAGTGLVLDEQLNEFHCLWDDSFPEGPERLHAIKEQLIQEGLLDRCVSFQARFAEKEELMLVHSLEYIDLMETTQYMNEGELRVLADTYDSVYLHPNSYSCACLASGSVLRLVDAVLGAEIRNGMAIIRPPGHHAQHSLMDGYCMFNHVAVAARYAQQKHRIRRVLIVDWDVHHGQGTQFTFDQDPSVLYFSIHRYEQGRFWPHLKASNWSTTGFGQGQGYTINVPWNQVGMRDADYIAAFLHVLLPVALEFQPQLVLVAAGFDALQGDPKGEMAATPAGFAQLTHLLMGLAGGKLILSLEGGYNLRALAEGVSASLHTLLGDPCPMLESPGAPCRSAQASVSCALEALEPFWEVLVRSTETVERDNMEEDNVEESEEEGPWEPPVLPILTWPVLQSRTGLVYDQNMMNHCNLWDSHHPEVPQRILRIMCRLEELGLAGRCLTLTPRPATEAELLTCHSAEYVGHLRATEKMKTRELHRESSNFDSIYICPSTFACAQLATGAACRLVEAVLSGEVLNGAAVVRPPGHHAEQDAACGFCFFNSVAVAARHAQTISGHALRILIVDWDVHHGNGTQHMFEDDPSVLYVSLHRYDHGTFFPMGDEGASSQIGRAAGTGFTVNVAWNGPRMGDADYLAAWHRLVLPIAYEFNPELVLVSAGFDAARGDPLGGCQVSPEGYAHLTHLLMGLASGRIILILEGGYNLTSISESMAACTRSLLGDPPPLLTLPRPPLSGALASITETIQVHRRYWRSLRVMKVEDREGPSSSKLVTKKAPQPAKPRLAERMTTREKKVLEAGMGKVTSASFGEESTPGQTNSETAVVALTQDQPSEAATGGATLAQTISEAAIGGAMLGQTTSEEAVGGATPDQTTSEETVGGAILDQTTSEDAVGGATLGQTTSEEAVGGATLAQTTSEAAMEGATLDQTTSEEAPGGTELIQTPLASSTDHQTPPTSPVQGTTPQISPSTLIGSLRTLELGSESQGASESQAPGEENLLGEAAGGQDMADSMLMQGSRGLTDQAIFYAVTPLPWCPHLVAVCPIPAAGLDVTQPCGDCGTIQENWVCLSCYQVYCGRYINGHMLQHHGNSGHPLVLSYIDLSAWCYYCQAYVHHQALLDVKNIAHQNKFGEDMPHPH

[10] = in vitro; conditions: human, WI-38 cells
Description: Cytotoxicity against human WI-38 cells assessed as inhibition of cell growth measured after 48 hrs by MTT assay

| IC50 [1] | IC50 [2] | IC50 [3] | IC50 [5] | IC50 [6] | IC50 [7] | IC50 [8] | IC50 [9] | IC50 at 48 h [10] | SMILES | IC50 [4] |
| --- | --- | --- | --- | --- | --- | --- | --- | --- | --- | --- |
| 10.8 µM | 12.5 µM | 7.58 µM | 15.8 µM | 0.349 µM | 1.74 µM | 0.344 µM | 0.475 µM | 51.5 µM | COc1cc(/C=C2\SC(=O)N(CCNC(=O)Nc3c(C)n(C)n(-c4ccccc4)c3=O)C2=O)cc(OC)c1OC | 35.4 µM |
| 57.6 µM | 47.6 µM | 65.5 µM | 53.1 µM | – | – | – | – | 83.7 µM | Cc1ccc(/C=C2\SC(=O)N(CC(=O)Nc3c(C)n(C)n(-c4ccccc4)c3=O)C2=O)cc1 | 45.3 µM |
| 14 µM | 44.8 µM | 18.6 µM | 37.7 µM | 0.16 µM | 0.526 µM | 0.245 µM | 0.144 µM | 76.4 µM | Cc1c(NC(=O)NCCN2C(=O)S/C(=C\c3ccc([N+](=O)[O-])cc3)C2=O)c(=O)n(-c2ccccc2)n1C | 69.3 µM |
| 31.9 µM | 23 µM | 42.6 µM | 19.9 µM | – | – | – | – | 54.4 µM | Cc1c(NC(=O)CN2C(=O)S/C(=C\c3ccc(Cl)cc3)C2=O)c(=O)n(-c2ccccc2)n1C | 28.9 µM |
| 19.2 µM | 7.84 µM | 24.1 µM | 9.41 µM | 0.458 µM | 3.85 µM | 1.09 µM | 1.63 µM | 66.7 µM | Cc1c(NC(=O)CN2C(=O)S/C(=C\c3ccc(Br)cc3)C2=O)c(=O)n(-c2ccccc2)n1C | 17.1 µM |
| – | – | – | – | – | – | – | – | – | O=C(CCCCCCC(=O)Nc1ccccc1)NO [VORINOSTAT] | 3.6 µM |
